Assay results taken from patent US20240092835A1, “NOVEL PEPTIDES CAPABLE OF ALTERING NK CELL ACTIVITY” (Massachusetts Institute of Technology, priority 2022, published 2024).
Where no end group is shown, it is not given here.

Legend:
NKG2A−/NKG2C+ NK cells = assay: NK cell activation markers in NKG2A-/NKG2C+ NK cells incubated with peptide and K562 expressing HLA-E (activation); assay type: cell-based, human; details: NKG2A-/NKG2C+ NK cells, K562/HLA-E, Trial 6
Summary of the method: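 Human myelogenous leukemia K562 cells displaying HLA-E carry the test peptides (human or HCMV origin) and are presented to NK cells; surface activation markers are scored by percent positive cells.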

CD94/NKG2A = CD94/NKG2A (Homo sapiens, UniProt P26715+Q13241); assay: Steady-state surface plasmon resonance of peptide-HLA-E complex with CD94/NKG2A; assay type: binding; details: for Binding of peptide-HLA-E complexes to CD94/NKG2A normalized to a theoretical Rmax: steady-state SPR
CD94/NKG2A, sequence (P26715 94-233 limits assumed): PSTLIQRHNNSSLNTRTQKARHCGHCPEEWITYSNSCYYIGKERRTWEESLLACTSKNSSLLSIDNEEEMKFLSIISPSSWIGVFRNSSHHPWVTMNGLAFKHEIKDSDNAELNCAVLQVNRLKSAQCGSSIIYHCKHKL
CD94/NKG2A, sequence (Q13241 32-179 limits assumed): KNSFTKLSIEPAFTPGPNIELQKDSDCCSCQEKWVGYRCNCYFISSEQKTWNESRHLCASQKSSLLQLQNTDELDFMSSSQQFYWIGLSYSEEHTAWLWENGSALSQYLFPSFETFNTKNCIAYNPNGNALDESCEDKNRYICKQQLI
Method: (§1) Binding affinity of novel peptides linked to HLA-E was determined using surface plasmon resonance (SPR), a methodology used to study protein-protein interactions (Tables 15-19). The peptide-HLA-E complex (generated as a single chain trimer) was immobilized on the sensor chip surface and CD94/NKG2A or CD94/NKG2C were flowed over. Steady-state surface plasmon resonance experiments were performed with a Biacore T200 instrument. CD94/NKG2x in HBS-EP+ buffer was injected as analyte in a concentration range of 0.1 μM to 102.4 μM and flow rate of 10 μL/min at 25° C. Data was fit with Prism 9.4 (GraphPad Software Inc; San Diego CA) to a “one site, specific binding” model. Series S CM5 chips were coupled to neutravidin and utilized. Biotinylated pMHC was immobilized at approximately 400 RU. KD values calculated by Biacore software are reported. Rmax, fit values were calculated by Biacore software. Rmax, theoretical values were calculated using the analyte/ligand mass ratio (0.66) multiplied by the amount of ligand coupled to the chip.

CD94/NKG2C = CD94/NKG2C (Homo sapiens, UniProt P26717+Q13241); assay: Steady-state surface plasmon resonance of peptide-HLA-E complex with CD94/NKG2C; assay type: binding; details: for Binding of peptide-HLA-E complexes to CD94/NKG2C normalized to a theoretical Rmax: steady-state SPR
CD94/NKG2C, sequence (P26717 94-231 limits assumed): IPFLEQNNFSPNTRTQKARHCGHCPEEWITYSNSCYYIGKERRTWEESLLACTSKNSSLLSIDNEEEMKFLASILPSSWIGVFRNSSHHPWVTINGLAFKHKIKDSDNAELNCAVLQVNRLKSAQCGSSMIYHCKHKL
CD94/NKG2C, sequence (Q13241 32-179 limits assumed): as the sequence (Q13241 32-179 limits assumed) above
Method: as §1

Q: Which results are given for TAPARTMFL [human13, TAPARTMFL]?
A: percentage of CD107+ NK cells (NKG2A−/NKG2C+ NK cells): 29.1%; percentage of IFNG+ NK cells (NKG2A−/NKG2C+ NK cells): 14.3%; percentage of TNF+ NK cells (NKG2A−/NKG2C+ NK cells): 8.92%; binding of peptide-HLA-E complex to CD94/NKG2A normalized to a fitted Rmax (CD94/NKG2A; CD94/NKG2A concentration 0 μM): 0.010; binding of peptide-HLA-E complex to CD94/NKG2A normalized to a fitted Rmax (CD94/NKG2A; CD94/NKG2A concentration 0.1 μM): 0.024; binding of peptide-HLA-E complex to CD94/NKG2A normalized to a fitted Rmax (CD94/NKG2A; CD94/NKG2A concentration 0.2 μM): 0.037; binding of peptide-HLA-E complex to CD94/NKG2A normalized to a fitted Rmax (CD94/NKG2A; CD94/NKG2A concentration 0.4 μM): 0.066; binding of peptide-HLA-E complex to CD94/NKG2A normalized to a fitted Rmax (CD94/NKG2A; CD94/NKG2A concentration 0.8 μM): 0.115; binding of peptide-HLA-E complex to CD94/NKG2A normalized to a fitted Rmax (CD94/NKG2A; CD94/NKG2A concentration 1.6 μM): 0.191; binding of peptide-HLA-E complex to CD94/NKG2A normalized to a fitted Rmax (CD94/NKG2A; CD94/NKG2A concentration 3.2 μM): 0.302; binding of peptide-HLA-E complex to CD94/NKG2A normalized to a fitted Rmax (CD94/NKG2A; CD94/NKG2A concentration 6.4 μM): 0.432; binding of peptide-HLA-E complex to CD94/NKG2A normalized to a fitted Rmax (CD94/NKG2A; CD94/NKG2A concentration 12.8 μM): 0.558; binding of peptide-HLA-E complex to CD94/NKG2A normalized to a fitted Rmax (CD94/NKG2A; CD94/NKG2A concentration 25.6 μM): 0.685; binding of peptide-HLA-E complex to CD94/NKG2A normalized to a fitted Rmax (CD94/NKG2A; CD94/NKG2A concentration 51.2 μM): 0.819; binding of peptide-HLA-E complex to CD94/NKG2A normalized to a fitted Rmax (CD94/NKG2A; CD94/NKG2A concentration 102.4 μM): 0.961; Binding of peptide-HLA-E complexes to CD94/NKG2A normalized to a theoretical Rmax (CD94/NKG2A; CD94/NKG2A analyte concentration 0.000 μM): 0.006; Binding of peptide-HLA-E complexes to CD94/NKG2A normalized to a theoretical Rmax (CD94/NKG2A; CD94/NKG2A analyte concentration 0.100 μM): 0.015; Binding of peptide-HLA-E complexes to CD94/NKG2A normalized to a theoretical Rmax (CD94/NKG2A; CD94/NKG2A analyte concentration 0.200 μM): 0.023; Binding of peptide-HLA-E complexes to CD94/NKG2A normalized to a theoretical Rmax (CD94/NKG2A; CD94/NKG2A analyte concentration 0.400 μM): 0.042; Binding of peptide-HLA-E complexes to CD94/NKG2A normalized to a theoretical Rmax (CD94/NKG2A; CD94/NKG2A analyte concentration 0.800 μM): 0.074; Binding of peptide-HLA-E complexes to CD94/NKG2A normalized to a theoretical Rmax (CD94/NKG2A; CD94/NKG2A analyte concentration 1.600 μM): 0.122; Binding of peptide-HLA-E complexes to CD94/NKG2A normalized to a theoretical Rmax (CD94/NKG2A; CD94/NKG2A analyte concentration 3.200 μM): 0.193; Binding of peptide-HLA-E complexes to CD94/NKG2A normalized to a theoretical Rmax (CD94/NKG2A; CD94/NKG2A analyte concentration 6.400 μM): 0.277; Binding of peptide-HLA-E complexes to CD94/NKG2A normalized to a theoretical Rmax (CD94/NKG2A; CD94/NKG2A analyte concentration 12.800 μM): 0.357; Binding of peptide-HLA-E complexes to CD94/NKG2A normalized to a theoretical Rmax (CD94/NKG2A; CD94/NKG2A analyte concentration 25.600 μM): 0.439; Binding of peptide-HLA-E complexes to CD94/NKG2A normalized to a theoretical Rmax (CD94/NKG2A; CD94/NKG2A analyte concentration 51.200 μM): 0.524; Binding of peptide-HLA-E complexes to CD94/NKG2A normalized to a theoretical Rmax (CD94/NKG2A; CD94/NKG2A analyte concentration 102.400 μM): 0.615; binding of peptide-HLA-E complex to CD94/NKG2C normalized to a fitted Rmax (CD94/NKG2C; CD94/NKG2C concentration 0 μM): 0.007; binding of peptide-HLA-E complex to CD94/NKG2C normalized to a fitted Rmax (CD94/NKG2C; CD94/NKG2C concentration 0.1 μM): 0.017; binding of peptide-HLA-E complex to CD94/NKG2C normalized to a fitted Rmax (CD94/NKG2C; CD94/NKG2C concentration 0.2 μM): 0.023; binding of peptide-HLA-E complex to CD94/NKG2C normalized to a fitted Rmax (CD94/NKG2C; CD94/NKG2C concentration 0.4 μM): 0.040; binding of peptide-HLA-E complex to CD94/NKG2C normalized to a fitted Rmax (CD94/NKG2C; CD94/NKG2C concentration 0.8 μM): 0.067; binding of peptide-HLA-E complex to CD94/NKG2C normalized to a fitted Rmax (CD94/NKG2C; CD94/NKG2C concentration 1.6 μM): 0.117; binding of peptide-HLA-E complex to CD94/NKG2C normalized to a fitted Rmax (CD94/NKG2C; CD94/NKG2C concentration 3.2 μM): 0.202; binding of peptide-HLA-E complex to CD94/NKG2C normalized to a fitted Rmax (CD94/NKG2C; CD94/NKG2C concentration 6.4 μM): 0.317; binding of peptide-HLA-E complex to CD94/NKG2C normalized to a fitted Rmax (CD94/NKG2C; CD94/NKG2C concentration 12.8 μM): 0.462; binding of peptide-HLA-E complex to CD94/NKG2C normalized to a fitted Rmax (CD94/NKG2C; CD94/NKG2C concentration 25.6 μM): 0.613; binding of peptide-HLA-E complex to CD94/NKG2C normalized to a fitted Rmax (CD94/NKG2C; CD94/NKG2C concentration 51.2 μM): 0.746; binding of peptide-HLA-E complex to CD94/NKG2C normalized to a fitted Rmax (CD94/NKG2C; CD94/NKG2C concentration 102.4 μM): 0.904; Binding of peptide-HLA-E complexes to CD94/NKG2C normalized to a theoretical Rmax (CD94/NKG2C; CD94/NKG2C analyte concentration 0 μM): 0.005; Binding of peptide-HLA-E complexes to CD94/NKG2C normalized to a theoretical Rmax (CD94/NKG2C; CD94/NKG2C analyte concentration 0.1 μM): 0.012; Binding of peptide-HLA-E complexes to CD94/NKG2C normalized to a theoretical Rmax (CD94/NKG2C; CD94/NKG2C analyte concentration 0.2 μM): 0.017; Binding of peptide-HLA-E complexes to CD94/NKG2C normalized to a theoretical Rmax (CD94/NKG2C; CD94/NKG2C analyte concentration 0.4 μM): 0.030; Binding of peptide-HLA-E complexes to CD94/NKG2C normalized to a theoretical Rmax (CD94/NKG2C; CD94/NKG2C analyte concentration 0.8 μM): 0.050; Binding of peptide-HLA-E complexes to CD94/NKG2C normalized to a theoretical Rmax (CD94/NKG2C; CD94/NKG2C analyte concentration 1.6 μM): 0.086; Binding of peptide-HLA-E complexes to CD94/NKG2C normalized to a theoretical Rmax (CD94/NKG2C; CD94/NKG2C analyte concentration 3.2 μM): 0.149; Binding of peptide-HLA-E complexes to CD94/NKG2C normalized to a theoretical Rmax (CD94/NKG2C; CD94/NKG2C analyte concentration 6.4 μM): 0.234; Binding of peptide-HLA-E complexes to CD94/NKG2C normalized to a theoretical Rmax (CD94/NKG2C; CD94/NKG2C analyte concentration 12.8 μM): 0.342; Binding of peptide-HLA-E complexes to CD94/NKG2C normalized to a theoretical Rmax (CD94/NKG2C; CD94/NKG2C analyte concentration 25.6 μM): 0.454; Binding of peptide-HLA-E complexes to CD94/NKG2C normalized to a theoretical Rmax (CD94/NKG2C; CD94/NKG2C analyte concentration 51.2 μM): 0.552; Binding of peptide-HLA-E complexes to CD94/NKG2C normalized to a theoretical Rmax (CD94/NKG2C; CD94/NKG2C analyte concentration 102.4 μM): 0.669
